Values of other authors as cited in patent US20060234348A1, “Method of production of RNA polymerase protein” (priority 2005, published 2006).

Biological target: T1, RNase A (Bos taurus, UniProt P61823)
T1 sequence (P61823 27-150): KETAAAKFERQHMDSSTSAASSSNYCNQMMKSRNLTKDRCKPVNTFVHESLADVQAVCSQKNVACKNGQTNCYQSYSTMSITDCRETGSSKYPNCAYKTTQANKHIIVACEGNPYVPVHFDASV
Conditions: RNase A 10 μg/ml, 4 mM DTT, 4° C. for 20 minutes

## O[C@H](CS)[C@H](O)CS (racemic) [DTT, dithiothreitol]
  conversion of polyribosomes to monoribosomes by RNase A: reduced the conversion of polyribosomes to monoribosomes
